# Experimental data taken from patent US11230525B2, “Organic sulfur compound, method for preparing same, and pharmaceutical composition for preventing or treating cancer or an inflammatory disease, containing same as active ingredient” (SOOKMYUNG WOMENS UNIVERSITY INDUSTRY-ACADEMIC COOPERATION …, priority 2016, dated 2022).
# pIC50: −log10 of the molar value.
# Experiments:
# [1] = test system: renal cancer cell line (ACHN); assay: Cancer proliferation inhibitory activity (SRB, GI50), ACHN; assay type: cell-based; conditions: Homo sapiens, 48 hours
# Source text: (§1) Particularly, the cancer proliferation inhibitory activity of the compounds of comparative examples (Ajoene and the compounds isosteric to Ajoene wherein R1 is allyl or benzyl) and the compounds of examples of the present invention (the compounds not isosteric to Ajoene wherein R^1 is phenyl) was investigated in human cancer cell lines (renal cancer cell line (ACHN), breast cancer cell line (MDA-MB-231), colorectal cancer cell line (HCT-15), prostate cancer cell line (PC-3), gastric cancer cell line (NUGC-3) and lung cancer cell line (NCl-H23)).
# (§2) At this time, the cancer cell lines (renal cancer cell line (ACHN), breast cancer cell line (MDA-MB-231), colorectal cancer cell line (HCT-15), prostate cancer cell line (PC-3), gastric cancer cell line (NUGC-3) and lung cancer cell line (NCl-H23)) above were purchased from American Type Culture Collection (Manassas, Va., USA). Cells were cultured in RPMI 1640 supplemented with 10% fetal bovine serum, which were maintained 37° C. under 5% CO2 wet atmosphere. The cells were distributed in a 96-well plate, which was not treated (treated only with 0.1% DMSO) or treated with the compounds of examples of the present (0.1 μM to 10 μM). 48 hours later, the cells were fixed in 50% trichloroacetic acid, followed by staining with 1% acetic acid containing 0.4% sulphorodamine B dissolved therein. The non-conjugated dye was removed by washing with 1% acetic acid, and the protein conjugated dye was extracted with 10 mM Tris base (pH 10.5). Then, OD540 was measured with VersaMax microplate reader (Molecular devices, Sunnyvale, Calif., USA). GI50 was calculated by using GraphPad Prism software (GraphPad Software, Inc., San Diego, Calif., USA).
# (§3) Based on the results obtained in experimental example 1-1 above, the derivatives wherein R^1 is phenyl were additionally synthesized. The cancer proliferation inhibitory activity of the derivatives was evaluated by the same manner as described in experimental example 1-1.
# [2] = test system: breast cancer cell line (MDA-MB-231); assay: Cancer proliferation inhibitory activity (SRB, GI50), MDA-MB-231; assay type: cell-based; conditions: Homo sapiens, 48 hours
# Source text: as §1, §2, §3
# [3] = test system: prostate cancer cell line (PC-3); assay: Cancer proliferation inhibitory activity (SRB, GI50), PC-3; assay type: cell-based; conditions: Homo sapiens, 48 hours
# Source text: as §1, §2, §3
# [4] = test system: gastric cancer cell line (NUGC-3); assay: Cancer proliferation inhibitory activity (SRB, GI50), NUGC-3; assay type: cell-based; conditions: Homo sapiens, 48 hours
# Source text: as §1, §2, §3
# [5] = test system: colorectal cancer cell line (HCT-15); assay: Cancer proliferation inhibitory activity (SRB, GI50), HCT-15; assay type: cell-based; conditions: Homo sapiens, 48 hours
# Source text: as §1, §2, §3
# [6] = test system: lung cancer cell line (NCl-H23); assay: Cancer proliferation inhibitory activity (SRB, GI50), NCI-H23; assay type: cell-based; conditions: Homo sapiens, 48 hours
# Source text: as §1, §2, §3
# HDAC 1 = HDAC 1 (Homo sapiens, UniProt Q13547); assay: HDAC enzyme fluorescence assay, HDAC 1; assay type: biochemical; conditions: recombinant HDAC enzyme, Boc-Lys(acetyl)-AMC
# Procedure: (§4) Particularly, HDAC enzyme analysis was performed based on a uniform fluorescence emission assay. First, the compounds of examples of the present invention or comparative example 1 were diluted at different concentrations, which were treated to the analysis buffer containing 25 mM HEPES (pH 8.0), 137 mM NaCl, 1 mM MgCl2 and 2.7 mM KCL, followed by culture of the recombinant HDAC enzyme. 10 minutes later, Boc-Lys(acetyl)-AMC, the fluorescence inducing substrate, was added thereto, followed by further culture at 37° C. At this time, the concentration of the fluorescence inducing substrate and the culture time were adjusted according to the isotypes of the HDAC enzyme. The reaction was terminated by treating trypsin at room temperature for 20 minutes. The fluorescence intensity was measured using a fluorescence analyzer at an excitation wavelength of 380 nm and an emission wavelength of 460 nm, respectively. The inhibition rate was calculated from the measured fluorescence intensity of each well with comparing to that of the control well. IC50 of the compound was calculated by analyzing the dose-reaction inhibition curve.
# HDAC 6 = target: T1, HDAC 6 (Homo sapiens, UniProt Q9UBN7); assay: HDAC enzyme fluorescence assay, HDAC 6; assay type: biochemical; conditions: recombinant HDAC enzyme, Boc-Lys(acetyl)-AMC
# T1 sequence (Q9UBN7 1-1215): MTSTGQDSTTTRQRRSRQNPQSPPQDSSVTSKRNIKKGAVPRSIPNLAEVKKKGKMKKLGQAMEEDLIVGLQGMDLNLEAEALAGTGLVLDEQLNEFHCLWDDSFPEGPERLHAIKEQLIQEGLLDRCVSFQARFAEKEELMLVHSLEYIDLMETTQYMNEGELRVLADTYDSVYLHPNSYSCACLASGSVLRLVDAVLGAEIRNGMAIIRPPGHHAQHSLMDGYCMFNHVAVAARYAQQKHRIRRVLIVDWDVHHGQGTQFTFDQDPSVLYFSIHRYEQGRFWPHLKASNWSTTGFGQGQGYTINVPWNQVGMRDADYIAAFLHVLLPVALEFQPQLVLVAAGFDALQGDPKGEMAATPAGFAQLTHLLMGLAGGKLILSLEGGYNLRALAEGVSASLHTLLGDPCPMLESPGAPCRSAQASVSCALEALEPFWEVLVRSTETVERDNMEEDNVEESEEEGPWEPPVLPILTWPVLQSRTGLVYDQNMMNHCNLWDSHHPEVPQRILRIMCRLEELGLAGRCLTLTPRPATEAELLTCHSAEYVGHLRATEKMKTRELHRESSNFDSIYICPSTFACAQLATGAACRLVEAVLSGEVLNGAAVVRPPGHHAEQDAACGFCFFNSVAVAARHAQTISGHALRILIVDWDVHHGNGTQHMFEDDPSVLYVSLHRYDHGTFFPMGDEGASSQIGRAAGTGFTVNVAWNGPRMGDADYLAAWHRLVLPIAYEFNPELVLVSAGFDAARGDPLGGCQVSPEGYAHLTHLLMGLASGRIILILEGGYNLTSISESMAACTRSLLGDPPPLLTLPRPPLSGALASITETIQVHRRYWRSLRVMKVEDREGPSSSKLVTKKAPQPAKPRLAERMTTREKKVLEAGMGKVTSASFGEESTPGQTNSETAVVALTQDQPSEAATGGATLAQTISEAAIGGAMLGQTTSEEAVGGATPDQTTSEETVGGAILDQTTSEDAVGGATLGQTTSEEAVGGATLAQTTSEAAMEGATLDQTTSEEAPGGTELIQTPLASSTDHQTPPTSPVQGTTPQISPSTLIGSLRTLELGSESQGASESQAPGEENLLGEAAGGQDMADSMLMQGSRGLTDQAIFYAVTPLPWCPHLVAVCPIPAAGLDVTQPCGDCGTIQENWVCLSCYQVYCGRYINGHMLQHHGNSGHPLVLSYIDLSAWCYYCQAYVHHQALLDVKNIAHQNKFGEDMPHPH
# Procedure: as §4
# HDAC 8 = target: T2, HDAC 8 (Homo sapiens, UniProt Q9BY41); assay: HDAC enzyme fluorescence assay, HDAC 8; assay type: biochemical; design: Inhibitory activity (%) HDAC 8: concentration or dose not given beside the values; conditions: for Inhibitory activity (%) HDAC 8: (HDAC inhibitory activity of example compound/HDAC inhibitory activity of SAHA) × 100
# T2 sequence (Q9BY41 1-377): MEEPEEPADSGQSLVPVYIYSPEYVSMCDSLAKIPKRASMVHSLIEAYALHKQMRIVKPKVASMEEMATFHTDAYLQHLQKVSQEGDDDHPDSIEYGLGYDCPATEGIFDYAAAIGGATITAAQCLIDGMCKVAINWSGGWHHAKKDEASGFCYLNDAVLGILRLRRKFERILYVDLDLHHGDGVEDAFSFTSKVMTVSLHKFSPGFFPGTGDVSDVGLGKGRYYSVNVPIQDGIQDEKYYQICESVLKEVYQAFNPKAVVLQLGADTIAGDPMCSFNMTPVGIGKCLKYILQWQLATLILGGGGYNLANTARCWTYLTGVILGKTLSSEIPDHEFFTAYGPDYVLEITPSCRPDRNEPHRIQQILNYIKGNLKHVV
# Procedure: as §4
# The HDAC 8 inhibitory activity was presented as percentage of relative activity by the inhibitory activity of SAHA (Vorinostat) used as a reference compound.
# [7] = test system: PC-3 cells, human prostate cancer cells; assay: Anticancer activity in prostate cancer xenograft model; assay type: in vivo, mice; conditions: 50 mg/kg (SAHA 100 mg/kg) once a day for 16 days, compared with the non-treated group
# Procedure: Particularly, 9×10^6 PC-3 cells, human prostate cancer cells, were inoculated subcutaneously to the right side of female BALB/c nu/nu mice at 5 weeks of age (Nara Biotech, Seoul, Republic of Korea).
# (§5) When the tumor size reached 40-60 mm^3, the mice were randomly grouped (4 mice per group), which were the non-treated group (10% dimethylacetamide, 10% tween 80 and 80% distilled water), the groups treated with the compounds of comparative examples 1 and 2 (Ajoene, 50 mg/kg), the groups treated with the compounds of examples 18 and 32 (50 mg/kg), and the group treated with the positive control SAHA (Vorinostat, 100 mg/kg). The treatment was performed once a day for 16 days in total. During the treatment, the tumor size was measured with a vernier caliper, followed by evaluation according to the following formula: length (mm)×width (mm)×height (mm)/2. The weights were measured regularly.
# (§6) Upon completion of the treatment (16 days later), the mice were sacrificed and the tumor weights were measured. All the experiments were performed according to the experiment protocol approved by Institutional Animal care and Use Committee (IACUC), Korea Research Institute of Bioscience and Biotechnology (KRIBB).
# [8] = Body weight of mice in prostate cancer xenograft model; assay type: in vivo; conditions: 50 mg/kg (SAHA 100 mg/kg) once a day for 16 days
# Procedure: as §5, §6
# Sequence of HDAC 1 (Q13547 whole entry, species assumed): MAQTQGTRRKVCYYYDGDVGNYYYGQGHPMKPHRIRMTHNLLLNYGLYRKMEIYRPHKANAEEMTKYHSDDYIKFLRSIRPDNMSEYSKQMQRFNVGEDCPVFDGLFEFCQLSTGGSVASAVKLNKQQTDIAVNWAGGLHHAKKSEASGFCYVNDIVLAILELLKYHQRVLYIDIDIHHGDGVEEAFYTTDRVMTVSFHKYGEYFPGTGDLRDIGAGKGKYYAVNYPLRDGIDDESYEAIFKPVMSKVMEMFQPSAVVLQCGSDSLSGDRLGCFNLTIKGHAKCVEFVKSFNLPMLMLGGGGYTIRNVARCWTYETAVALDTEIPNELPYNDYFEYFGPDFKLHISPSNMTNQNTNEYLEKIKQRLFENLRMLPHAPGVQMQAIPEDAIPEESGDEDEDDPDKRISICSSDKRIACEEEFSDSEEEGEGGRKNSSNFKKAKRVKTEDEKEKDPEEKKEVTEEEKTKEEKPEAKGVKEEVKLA
GI50 [1],GI50 [2],GI50 [3],GI50 [4],GI50 [5],GI50 [6],pIC50 (HDAC 1),pIC50 (HDAC 6),"pIC50 (HDAC 8; recombinant HDAC enzyme, Boc-Lys(acetyl)-AMC, read-out: IC50 HDAC 8)",SMILES,Inhibitory activity (%) HDAC 8 (HDAC 8),"tumor size / cancer proliferation (FIGS. 2, 3) [7]",changes in weight of mice / visible toxicity (FIG. 1) [8]
5.42 µM,3.96 µM,5.35 µM,3.25 µM,6.48 µM,4.91 µM,5.41,4.31,7.37,"[O-][S+](C/C=C\SSCc1ccccc1)c1ccccc1 (stereo not shown) [Example 6, (Z)-1-benzyl-2-(3-(phenylsulfinyl)prop-1-enyl)disulfane]",129.1%,,
,,,,,,,,,"O=C(CCCCCCC(=O)Nc1ccccc1)NO [SAHA, reference compound]",,cancer proliferation was inhibited,
5.82 µM,3.57 µM,5.97 µM,5.8 µM,3.65 µM,5.27 µM,5.90,,,"COc1cccc([S+]([O-])C/C=C\SSCc2ccc(Cl)cc2)c1 (stereo not shown) [Example 24, (Z)-1-(4-chlorobenzyl)-2-(3-(3-methoxyphenylsulfinyl)prop-1-enyl)disulfane]",140.4%,,
,,,,,,,,,"C=CCSS/C=C/C[S+]([O-])CC=C (stereo not shown) [Comparative Example 1, E-Ajoene, reference compound]",73.4%,cancer proliferation was inhibited,only normal weight increases were observed

SMILES,GI50 [1],GI50 [2],GI50 [3],GI50 [4],GI50 [5],GI50 [6],pIC50 (HDAC 1),pIC50 (HDAC 6),"pIC50 (HDAC 8; recombinant HDAC enzyme, Boc-Lys(acetyl)-AMC, read-out: IC50 HDAC 8)",Inhibitory activity (%) HDAC 8 (HDAC 8),"tumor size / cancer proliferation (FIGS. 2, 3) [7]",changes in weight of mice / visible toxicity (FIG. 1) [8]
"C=CCSS/C=C\C[S+]([O-])CC=C (stereo not shown) [Comparative Example 2, Z-Ajoene, reference compound]",> 10 µM,> 10 µM,> 10 µM,> 10 µM,> 10 µM,> 10 µM,,,,52.5%,cancer proliferation was inhibited,only normal weight increases were observed
